Assay: Kinetic gas hydrate inhibition test in stirred steel autoclave
Settings: 5000 ppm based on the water phase; for Tind (time from attainment of 4° C. until the first gas absorption): distilled water and gas 20:80, 50 bar natural gas; for Tagg (time until the torque rises): distilled water and gas 20:80, 50 bar natural gas, 4° C.
Experimental: To investigate the inhibiting action of the polyesters, a stirred steel autoclave with temperature control, pressure and torque sensor with capacity 450 ml was used. For investigations of kinetic inhibition, the autoclave was filled with distilled water and gas in a volume ratio of 20:80; for investigations of agglomerate inhibition, condensate was additionally added. Finally, 50 bar of natural gas were injected. […] At first, a pressure decrease corresponding to the thermal compression of the gas is observed. When the formation of gas hydrate nuclei occurs during the cooling time, the pressure measured falls, and a rise in the torque measured and a slight increase, in the temperature are observed. Without inhibitors, further growth and increasing agglomeration of the hydrate nuclei lead rapidly to a further rise in the torque. When the mixture is heated, the gas hydrates decompose, so that the starting state of the experimental series is attained. The measure used for the inhibiting action of the polymer is the time from the attainment of the minimum temperature of 4° C. until the first gas absorption (Tind) or the time until the torque rises (Tagg). Long induction times or agglomeration times indicate an effect as a kinetic inhibitor. The torque measured in the autoclave serves, in contrast, as a parameter for the agglomeration of the hydrate crystals. […] Composition of the natural gas used: methane 84.8%, ethane 9.2%, propane 2.6%, butane 0.9%, carbon dioxide 1.6%, nitrogen 0.9%. The comparative substance used was a commercially available gas hydrate inhibitor based on polyvinylpyrrolidone. The dosage in all tests was 5000 ppm based on the water phase.

Compound | Tind (time from attainment of 4° C. until the first gas absorption) [h] | Tagg (time until the torque rises) [h]
O=C1CC[C@@H](C(=O)OCCOCCOCCOC(=O)[C@@H]2CCC(=O)N2)N1 [Example 1, triethylene glycol di(pyroglutamate)] | 6.9 | 7.2
O=C1CC[C@@H](C(=O)OCCOCCOCCOC(=O)[C@@H]2CCC(=O)N2)N1 [Example 2, triethylene glycol di(pyroglutamate)] | 7.3 | 7.4

From patent US9452981B2, “Pyroglutamic acid esters with improved biodegradability” (Clariant Produkte (Deutschland) GmbH, priority 2005, dated 2016)
